Assay results published in ChEMBL document CHEMBL1933061, “Discovery of a novel class of aldol-derived 1,2,3-triazoles: potent and selective inhibitors of human cytochrome P450 19A1 (aromatase)” (Bioorg Med Chem Lett, 2012).

Legend:
[1] = target: T1, Cytochrome P450 1A1 (Homo sapiens, UniProt P04798); assay: Inhibition of CYP1A1; format: ADME
T1 sequence (P04798 whole entry): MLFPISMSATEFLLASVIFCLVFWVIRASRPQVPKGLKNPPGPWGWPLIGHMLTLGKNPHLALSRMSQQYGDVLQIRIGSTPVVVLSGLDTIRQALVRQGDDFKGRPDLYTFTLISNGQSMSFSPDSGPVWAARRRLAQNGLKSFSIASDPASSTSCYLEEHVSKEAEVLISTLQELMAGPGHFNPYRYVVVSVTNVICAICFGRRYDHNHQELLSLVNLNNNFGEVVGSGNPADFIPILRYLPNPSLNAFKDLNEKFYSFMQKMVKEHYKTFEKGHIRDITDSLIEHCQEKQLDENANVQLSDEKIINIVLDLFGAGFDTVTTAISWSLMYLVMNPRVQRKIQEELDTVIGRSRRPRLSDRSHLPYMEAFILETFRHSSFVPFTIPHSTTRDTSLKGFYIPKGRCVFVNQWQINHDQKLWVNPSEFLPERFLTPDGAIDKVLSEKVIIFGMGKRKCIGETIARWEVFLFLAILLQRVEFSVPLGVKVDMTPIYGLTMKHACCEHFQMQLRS

[2] = target: Cytochrome P450 3A4 (Homo sapiens, UniProt P08684); assay: Inhibition of CYP3A4 at 10 uM; format: ADME
Sequence of Cytochrome P450 3A4 (P08684 whole entry): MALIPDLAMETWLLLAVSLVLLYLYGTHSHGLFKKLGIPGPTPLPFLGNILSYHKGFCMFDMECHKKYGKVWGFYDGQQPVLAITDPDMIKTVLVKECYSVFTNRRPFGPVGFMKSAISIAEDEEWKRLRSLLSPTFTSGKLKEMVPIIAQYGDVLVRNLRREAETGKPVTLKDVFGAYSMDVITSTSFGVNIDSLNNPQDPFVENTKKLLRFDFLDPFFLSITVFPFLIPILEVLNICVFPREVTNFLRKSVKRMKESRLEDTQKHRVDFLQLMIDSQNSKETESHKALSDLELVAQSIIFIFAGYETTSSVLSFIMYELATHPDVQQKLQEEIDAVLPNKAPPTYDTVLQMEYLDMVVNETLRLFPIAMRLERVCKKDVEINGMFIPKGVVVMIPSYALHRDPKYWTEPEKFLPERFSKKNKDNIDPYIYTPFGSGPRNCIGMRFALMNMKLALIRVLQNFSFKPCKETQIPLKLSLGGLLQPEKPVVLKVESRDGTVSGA

[3] = target: T2, Aromatase (Homo sapiens, UniProt P11511); assay: Inhibition of human recombinant aromatase assessed as conversion of O-dibenzylfluorescein benzyl ester substrate to fluorescein byproduct by fluorometric assay; conditions: for inhibition (INH): human
T2 sequence (P11511 whole entry): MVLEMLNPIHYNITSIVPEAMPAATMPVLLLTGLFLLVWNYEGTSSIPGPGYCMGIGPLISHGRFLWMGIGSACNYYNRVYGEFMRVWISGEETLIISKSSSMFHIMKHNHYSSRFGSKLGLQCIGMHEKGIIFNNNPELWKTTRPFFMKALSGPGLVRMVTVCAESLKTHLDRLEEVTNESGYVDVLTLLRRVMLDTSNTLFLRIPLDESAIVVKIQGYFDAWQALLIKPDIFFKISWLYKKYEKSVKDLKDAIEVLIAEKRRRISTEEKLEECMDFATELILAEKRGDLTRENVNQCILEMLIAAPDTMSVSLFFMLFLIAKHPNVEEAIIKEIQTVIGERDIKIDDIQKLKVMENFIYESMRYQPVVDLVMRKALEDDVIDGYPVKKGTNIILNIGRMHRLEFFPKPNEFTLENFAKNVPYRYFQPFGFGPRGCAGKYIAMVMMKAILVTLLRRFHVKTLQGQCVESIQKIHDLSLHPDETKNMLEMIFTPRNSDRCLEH

[4] = target: T2, Aromatase; assay: Inhibition of human recombinant aromatase assessed as conversion of O-dibenzylfluorescein benzyl ester substrate to fluorescein byproduct at 10 uM by fluorometric assay
[5] = target: Cytochrome P450 2D6 (Homo sapiens, UniProt P10635); assay: Inhibition of CYP2D6; format: ADME
Sequence of Cytochrome P450 2D6 (P10635 whole entry): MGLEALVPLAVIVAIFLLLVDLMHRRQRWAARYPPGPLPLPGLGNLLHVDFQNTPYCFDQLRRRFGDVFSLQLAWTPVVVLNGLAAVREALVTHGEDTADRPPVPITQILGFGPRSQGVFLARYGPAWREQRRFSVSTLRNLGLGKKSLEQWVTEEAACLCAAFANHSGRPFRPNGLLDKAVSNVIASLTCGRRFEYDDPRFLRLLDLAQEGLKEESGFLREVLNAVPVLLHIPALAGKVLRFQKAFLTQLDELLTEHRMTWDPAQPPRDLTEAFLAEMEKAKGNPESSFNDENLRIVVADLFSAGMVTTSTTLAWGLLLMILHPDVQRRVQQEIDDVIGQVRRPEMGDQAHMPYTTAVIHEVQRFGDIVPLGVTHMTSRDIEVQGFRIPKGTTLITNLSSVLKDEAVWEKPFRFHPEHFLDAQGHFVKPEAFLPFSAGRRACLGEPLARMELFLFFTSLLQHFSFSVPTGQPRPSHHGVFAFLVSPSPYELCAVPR

Row | inhibition (INH) [2] | Ki [3] | inhibition (INH) [4] | Structure (SMILES) | further results
1 | Not Active | 1 µM |  | O=C(c1ccccc1)C(Cn1ccnn1)c1ccccc1 (stereo unspecified) | Ki [1]: 5.37 µM
2 |  | 0.79 µM |  | COCO[C@@H](c1ccccc1)[C@@H](Cn1ccnn1)c1ccccc1 (relative stereo) | Ki [5]: 1120 µM
3 |  |  | Not Active | O[C@@H](c1ccccc1)[C@@H](Cn1ccnn1)c1ccccc1 (relative stereo) | 
4 | Not Active | 0.1 µM |  | O=C(O[C@@H](c1ccccc1)[C@@H](Cn1ccnn1)c1ccccc1)c1ccccc1 (relative stereo) | Ki [1]: 30.9 µM
5 | Not Active | 0.06 µM |  | CC(=O)O[C@@H](c1ccccc1)[C@@H](Cn1ccnn1)c1ccccc1 (relative stereo) | 
6 | Not Active | 0.08 µM |  | COCO[C@H](c1ccccc1)[C@@H](Cn1ccnn1)c1ccccc1 (relative stereo) | 
7 | Not Active | 0.05 µM |  | O[C@H](c1ccccc1)[C@@H](Cn1ccnn1)c1ccccc1 (relative stereo) | Ki [5]: 708 µM
8 | Not Active | 0.25 µM |  | CC(=O)O[C@H](c1ccccc1)[C@@H](Cn1ccnn1)c1ccccc1 (relative stereo) | 

More lines, now with the values behind:

Row | Structure (SMILES) | inhibition (INH) [2] | Ki [3] | inhibition (INH) [4] | further results
9 | COCO[C@@H](c1ccccc1)[C@@H](CN=[N+]=[N-])c1ccccc1 (relative stereo) |  |  | Not Active | inhibition (INH) [3]: Not Active
10 | COCO[C@@H](c1ccccc1)[C@@H](Cn1cc([Si](C)(C)C)nn1)c1ccccc1 (relative stereo) |  |  | Not Active | inhibition (INH) [3]: Not Active
11 | COCO[C@@H](c1ccccc1)[C@@H](CN1CCOCC1)c1ccccc1 (relative stereo) |  |  | Not Active | 
12 | COCO[C@@H](c1ccccc1)[C@@H](CN)c1ccccc1 (relative stereo) |  |  | Not Active | 
13 | COCO[C@H](c1ccccc1)[C@@H](CN=[N+]=[N-])c1ccccc1 (relative stereo) |  |  | Not Active | 
14 | COCO[C@H](c1ccccc1)[C@@H](Cn1cc([Si](C)(C)C)nn1)c1ccccc1 (relative stereo) |  |  | Not Active | 
